Values after ≈ are worked out from the molar mass of the structure shown. Like-named read-outs stand apart in the source and are kept apart here.
Key:
[1] = Residual antibacterial activity after incubation with 90% plasma (Table 4); format: in vitro ADME, male Sprague-Dowley rat; settings: 90% rat plasma; for remaining at 0.25 h / remaining at 0.5 h / remaining at 1.5 h: 90% plasma; for remaining at 0.25 h: 15 minute; for remaining at 0.5 h: 30 minute; for remaining at 1.5 h: 90 minute; for Residual activity: 0 minute
Protocol: (§1) The relation between the reaction period of time and the antibacterial activity (residual activity, %) when these compounds are incubated with the plasma and the liver homogenate of a male Sprague-Dowley rat is shown in Table 4. The residual antibacterial activity was measured by a thin-layer cup method according to Bacillus subtilis ATCC 6633.
A*Residual activity (%) when incubated with 90% plasma.

[2] = Residual antibacterial activity after incubation with 10% liver homogenate (Table 4); format: in vitro ADME, male Sprague-Dowley rat; settings: 10% rat liver homogenate; for remaining at 0.25 h / remaining at 0.5 h / remaining at 1.5 h: 10% liver homogenate, read-out: Residual activity; for remaining at 0.25 h: 15 minute; for remaining at 0.5 h: 30 minute; for remaining at 1.5 h: 90 minute; for Residual activity: 0 minute
Protocol: as §1
B*Residual activity (%) when incubated with 10% liver homogenate.

[3] = Solubility of salts in water (Table 2); format: physicochemical; settings: for Solubility (appearance of solution): sodium salt, in water; for solubility: disodium salt, water, showing pH 7.4, read-out: Solubility: disodium salt dissolved in water in an amount of
From the text: An advantage of the compounds of this invention is that the salts, for example, sodium salts of these compounds are readily soluble in water at pH of living bodies, which makes them suitable for injections at high concentration. The solubility of these compounds are illustrated in Table 2 together with a control example.

Proteus vulgaris OXK US = assay: MIC against bacteria (Table I), strain (1); format: cell-based; settings: (1) Proteus vulgaris OXK US; read-out: MIC
From the text: (§2) Now, for illustrating the excellent pharmacological effects of the compounds of this invention, the values of MIC (γ/ml.) of the compounds against various bacteria are shown in Table 1, in which the compounds of this invention used are shown by example numbers.
(1) Proteus vulgaris OXK US

Proteus vulgaris 0X 19US = assay: MIC against bacteria (Table I), strain (2); format: cell-based; settings: 0X19US
From the text: as §2
(2) Proteus vulgaris 0X 19US

[4] = tested on: Proteus mirabilis IXM OM-19; assay: MIC against bacteria (Table I), strain (3); format: cell-based; settings: IXMOM19; (3) Proteus mirabilis IXM OM-19; read-out: MIC
From the text: as §2
(3) Proteus mirabilis IXM OM-19

[5] = tested on: Pseudomonas aeruginosa ATCC 8689; assay: MIC against bacteria (Table I), strain (4); format: cell-based; settings: ATCC8689; (4) Pseudomonas aeruginosa ATCC 8689; read-out: MIC
From the text: as §2
(4) Pseudomonas aeruginosa ATCC 8689

[6] = tested on: Pseudomonas aeruginosa 99 (Gentamycin resistant); assay: MIC against bacteria (Table I), strain (5); format: cell-based
From the text: as §2
(5) Pseudomonas aeruginosa 99 (Gentamycin resistant)

[7] = tested on: Psuedomonas ovalis IMA 1002; assay: MIC against bacteria (Table I), strain (6); format: cell-based; settings: (6) Psuedomonas ovalis IMA 1002; read-out: MIC
From the text: as §2
(6) Psuedomonas ovalis IMA 1002

[8] = tested on: Escherichia coli kauffmann 0-1; assay: MIC against bacteria (Table I), strain (7); format: cell-based; settings: Escherichia coli
From the text: as §2
(7) Escherichia coli kauffmann 0-1

[9] = tested on: Klebsiella pneumoniae ATCC 10031; assay: MIC against bacteria (Table I), strain (8); format: cell-based; settings: ATCC10031
From the text: as §2
(8) Klebsiella pneumoniae ATCC 10031

Salmonella typhi H901 W = assay: MIC against bacteria (Table I), strain (9); format: cell-based; settings: Salmonella enterica, TYPHI
From the text: as §2
(9) Salmonella typhi H901 W

Salmonella enteritidis = assay: MIC against bacteria (Table I), strain (10); format: cell-based; settings: Salmonella enterica
From the text: as §2
(10) Salmonella enteritidis

[10] = tested on: Shigella flexneri 2a 1675; assay: MIC against bacteria (Table I), strain (11); format: cell-based; settings: 2A1675; (11) Shigella flexneri 2a 1675; read-out: MIC
From the text: as §2

Shigella sonnei II 37148 = assay: MIC against bacteria (Table I), strain (12); format: cell-based; settings: II37148; (12) Shigella sonnei II 37148; read-out: MIC
From the text: as §2

[11] = tested on: Bacillus megatherium 10778; assay: MIC against bacteria (Table I), strain (13); format: cell-based; settings: (13) Bacillus megatherium 10778; read-out: MIC
From the text: as §2

[12] = tested on: Bacillus subtilis ATCC 6633; assay: MIC against bacteria (Table I), strain (14); format: cell-based; settings: ATCC6633; (14) Bacillus subtilis ATCC 6633; read-out: MIC
From the text: as §2
(14) Bacillus subtilis ATCC 6633

[13] = tested on: Micrococcus flavus ATCC 10240; assay: MIC against bacteria (Table I), strain (15); format: cell-based; settings: ATCC10240
From the text: as §2
(15) Micrococcus flavus ATCC 10240

[14] = tested on: Staphylococcus aureus 209P; assay: MIC against bacteria (Table I), strain (16); format: cell-based
From the text: as §2
(16) Staphylococcus aureus 209P

[15] = tested on: Staphylococcus Shimanishi; assay: MIC against bacteria (Table I), strain (17); format: cell-based
From the text: as §2
(17) Staphylococcus Shimanishi

Staphylococcus Onuma = assay: MIC against bacteria (Table I), strain (18); format: cell-based
From the text: as §2
(18) Staphylococcus Onuma

[16] = (2) Proteus vulgaris 0X 19US, read-out: MIC
[17] = (5) Pseudomonas aeruginosa 99 (Gentamycin resistant), read-out: MIC
[18] = (8) Klebsiella pneumoniae ATCC 10031, read-out: MIC
[19] = (15) Micrococcus flavus ATCC 10240, read-out: MIC
[20] = (16) Staphylococcus aureus 209P, read-out: MIC
[21] = (17) Staphylococcus Shimanishi, read-out: MIC
[22] = (10) Salmonella enteritidis, read-out: MIC
[23] = (18) Staphylococcus Onuma, read-out: MIC

SMILES	MIC (Proteus vulgaris OXK US) [µg/mL]	MIC (Proteus vulgaris 0X 19US; [16]) [µg/mL]	MIC [4] [µg/mL]	MIC [5] [µg/mL]	MIC [6, 17] [µg/mL]	MIC [7] [µg/mL]	MIC [8] [µg/mL]	MIC [9, 18] [µg/mL]	MIC (Salmonella typhi H901 W) [µg/mL]	MIC [10] [µg/mL]	MIC (Shigella sonnei II 37148) [µg/mL]	MIC [11] [µg/mL]	MIC [12] [µg/mL]	MIC [13, 19] [µg/mL]	MIC [14, 20] [µg/mL]	MIC [15, 21] [µg/mL]	MIC (Staphylococcus Onuma; Staphylococcus) [µg/mL]	MIC (Salmonella enteritidis; [22]) [µg/mL]	MIC (Staphylococcus Onuma; [23]) [µg/mL]	solubility [3] [mg/mL]	other results
O=C(Cc1cccs1)N[C@@H]1C(=O)N2C(C(=O)[O-])=C(C[n+]3ccccc3)CS[C@H]12 [Cephaloridine, reference compound]																					remaining at 0.25 h [1]: 97.2%; remaining at 0.5 h [1]: 89.5%; remaining at 1.5 h [1]: 72.2%; Residual activity [1]: 100%; remaining at 0.25 h [2]: 82.3%; remaining at 0.5 h [2]: 86%; remaining at 1.5 h [2]: 91.1%; Residual activity [2]: 100%
Cc1nnc(SCC2=C(C(=O)O)N3C(=O)[C@@H](NC(=O)[C@H](NC(=O)c4cnccc4O)c4ccccc4)[C@H]3SC2)s1 [Control sample, reference compound]																					Solubility (appearance of solution) ([3]; at 0.5%): clearly; Solubility (appearance of solution) ([3]; at 1%): became slight turbid; Solubility (appearance of solution) ([3]; at 5%): became turbid; Solubility (appearance of solution) ([3]; at 10%): became thickly turbid; Solubility (appearance of solution) ([3]; at 20%): gelled
O=C(O)C1=C(CSc2nnc(SCCS(=O)(=O)O)s2)CS[C@@H]2[C@H](NC(=O)[C@H](NC(=O)c3cnccc3O)c3ccccc3)C(=O)N12 [Example 9, 7-[D-α-(4-hydroxynicotinoylamido)-α-phenylacetamido]-3-(5-sulfoethylthio-1,3,4-thiadiazol-2-yl)thiomethyl-Δ^3-cephem-4-carboxylic acid]	0.19 (≈ 0.262 µM)	0.39 (≈ 0.538 µM)	0.39 (≈ 0.538 µM)	12.5 (≈ 17.2 µM)	12.5 (≈ 17.2 µM)	12.5 (≈ 17.2 µM)	3.13 (≈ 4.32 µM)	3.13 (≈ 4.32 µM)	1.56 (≈ 2.15 µM)	1.56 (≈ 2.15 µM)	6.25 (≈ 8.62 µM)	0.39 (≈ 0.538 µM)	0.39 (≈ 0.538 µM)	3.13 (≈ 4.32 µM)	0.78 (≈ 1.08 µM)	3.13 (≈ 4.32 µM)	6.25 (≈ 8.62 µM)				MIC (Salmonella enteritidis; ENTERITIDIS): 0.39 µg/mL (≈ 0.538 µM); remaining at 0.25 h [1]: 103%; remaining at 0.5 h [1]: 92%; remaining at 1.5 h [1]: 100%; Residual activity [1]: 100%; remaining at 0.25 h [2]: 100%; remaining at 0.5 h [2]: 100%; remaining at 1.5 h [2]: 102%; Residual activity [2]: 100%
O=C(O)CSc1nsc(SCC2=C(C(=O)O)N3C(=O)[C@@H](NC(=O)[C@H](NC(=O)c4cnccc4O)c4ccccc4)[C@H]3SC2)n1 [Example 13, 7-[D-α-(4-hydroxynicotinoylamido)-α-phenylacetamido]-3-(3-carboxymethylthio-1,2,4-thiadiazol-5yl)thiomethyl-Δ^3 cephem-4-carboxylic acid]	< 0.09	0.78 (≈ 1.16 µM)	0.39 (≈ 0.578 µM)	12.5 (≈ 18.5 µM)	6.25 (≈ 9.26 µM)	12.5 (≈ 18.5 µM)	3.13 (≈ 4.64 µM)		1.56 (≈ 2.31 µM)	1.56 (≈ 2.31 µM)	3.13 (≈ 4.64 µM)	0.39 (≈ 0.578 µM)	0.39 (≈ 0.578 µM)	6.25 (≈ 9.26 µM)	0.78 (≈ 1.16 µM)	6.25 (≈ 9.26 µM)		0.39 (≈ 0.578 µM)	6.25 (≈ 9.26 µM)	> 200	MIC ([9]; Klebsiella pneumoniae): 3.13 µg/mL (≈ 4.64 µM)
O=C(O)CSc1cc(SCC2=C(C(=O)O)N3C(=O)[C@@H](NC(=O)[C@H](NC(=O)c4cnccc4O)c4ccccc4)[C@H]3SC2)ncn1 [Example 16]	< 0.09	< 0.09	0.19 (≈ 0.284 µM)	25 (≈ 37.4 µM)	25 (≈ 37.4 µM)	25 (≈ 37.4 µM)	6.25 (≈ 9.35 µM)	12.5 (≈ 18.7 µM)	1.56 (≈ 2.33 µM)	3.13 (≈ 4.68 µM)	6.25 (≈ 9.35 µM)	0.39 (≈ 0.583 µM)	0.19 (≈ 0.284 µM)		0.78 (≈ 1.17 µM)		6.25 (≈ 9.35 µM)	0.78 (≈ 1.17 µM)		> 200	MIC ([13]; Micrococcus flavus): 3.13 µg/mL (≈ 4.68 µM); MIC ([15]; Staphylococcus): 6.25 µg/mL (≈ 9.35 µM)
Cc1nc(SCC2=C(C(=O)O)N3C(=O)[C@@H](NC(=O)[C@H](NC(=O)c4cnccc4O)c4ccccc4)[C@H]3SC2)sc1CC(=O)O [Example 23, 7-[D-α-(4-hydroxynicotinoylamido)-α-phenylacetamido]-3-(5-carboxymethyl-4-methylthiazol-2-yl)thiomethyl-Δ^3-cephem-4-carboxylic acid]	< 0.09	< 0.09	0.19 (≈ 0.29 µM)	12.5 (≈ 19.1 µM)	6.25 (≈ 9.53 µM)	12.5 (≈ 19.1 µM)	1.56 (≈ 2.38 µM)	6.25 (≈ 9.53 µM)	1.56 (≈ 2.38 µM)	1.56 (≈ 2.38 µM)	3.13 (≈ 4.77 µM)	0.39 (≈ 0.595 µM)	0.78 (≈ 1.19 µM)	12.5 (≈ 19.1 µM)		12.5 (≈ 19.1 µM)			12.5 (≈ 19.1 µM)	> 200	MIC (Salmonella enteritidis; ENTERITIDIS): 0.39 µg/mL (≈ 0.595 µM); MIC ([14]; Staphylococcus aureus, 209P): 3.13 µg/mL (≈ 4.77 µM)
Cc1nc(SCC2=C(C(=O)O)N3C(=O)[C@@H](NC(=O)[C@H](NC(=O)c4cnccc4O)c4ccccc4)[C@H]3SC2)sc1SCC(=O)O [Example 24, 7-[D-α-(4-hydroxynicotinoylamido)-α-phenylacetamido]-3-(5-carboxymethylthio-4-methylthiazol-2-yl)thiomethyl-Δ^3-cephem-4-carboxylic acid]	< 0.09	< 0.09	0.19 (≈ 0.276 µM)	12.5 (≈ 18.2 µM)	6.25 (≈ 9.09 µM)	12.5 (≈ 18.2 µM)	3.13 (≈ 4.55 µM)	6.25 (≈ 9.09 µM)	1.56 (≈ 2.27 µM)	1.56 (≈ 2.27 µM)	3.13 (≈ 4.55 µM)	0.78 (≈ 1.13 µM)	0.39 (≈ 0.567 µM)	6.25 (≈ 9.09 µM)	0.78 (≈ 1.13 µM)	6.25 (≈ 9.09 µM)		0.78 (≈ 1.13 µM)	6.25 (≈ 9.09 µM)	> 200	
O=C(O)Cc1nnc(SCC2=C(C(=O)O)N3C(=O)[C@@H](NC(=O)[C@H](NC(=O)c4cnccc4O)c4ccccc4)[C@H]3SC2)s1 [Example 25, 7-[D-α-(4-hydroxynicotinoylamido)-α-phenylacetamido]-3-(5-carboxymethyl-1,3,4-thiadiazol-2-yl)thiomethyl-Δ^3-cephem-4-carboxylic acid]	< 0.09		0.39 (≈ 0.607 µM)	12.5 (≈ 19.4 µM)		12.5 (≈ 19.4 µM)	3.13 (≈ 4.87 µM)		0.39 (≈ 0.607 µM)	1.56 (≈ 2.43 µM)	6.25 (≈ 9.72 µM)	0.39 (≈ 0.607 µM)	0.39 (≈ 0.607 µM)		0.78 (≈ 1.21 µM)	3.13 (≈ 4.87 µM)	6.25 (≈ 9.72 µM)	0.19 (≈ 0.296 µM)		> 200	MIC (Proteus vulgaris 0X 19US; Proteus vulgaris): 1.56 µg/mL (≈ 2.43 µM); MIC ([6]; Pseudomonas aeruginosa): 6.25 µg/mL (≈ 9.72 µM); MIC ([9]; Klebsiella pneumoniae): 6.25 µg/mL (≈ 9.72 µM); MIC ([13]; Micrococcus flavus): 6.25 µg/mL (≈ 9.72 µM)
